From US8481459B2, “Chemical inhibitors of ethylene biosynthesis” (Academia Sinica, priority 2010, dated 2013)

System: gene expression in etiolated eto1-4 seedlings
Experiment: Transcriptional profiling (ATH1 GeneChip microarray) of etiolated eto1-4 seedlings
Assay type: in vivo, Arabidopsis thaliana
Conditions: ratio eto1-4 treated to eto1-4 (no treatment)
Experimental: For chemical treatments, seeds were sown on 0.5×MS agar medium supplemented with 10 μM chemicals (AVG, compounds 9393, 9370, and 7303) or DMSO (as control). Arabidopsis seeds were stratified in the dark at 4° C. for 4 days, then germinated in the dark for 3 days at 22° C. Approximately 2,000 etiolated seedlings of the wild type or eto1-4 were used to collect tissues for preparation of total RNA in each microarray experiment with Arabidopsis ATH1 GeneChip (Affymetrix). Extraction of RNA followed an established protocol (Chang, et al. (1993) Plant Mol. Biol. Rep. 11, 113-117). Total RNA (10 μg) was used to prepare biotinylated cRNA for hybridization to ATH1 GeneChip in the experiments disclosed herein. Experiments were repeated by 2 independent biological duplicates, and candidate genes present in both experiments were selected for further analysis. The MASS method was used for data analysis and normalization by all sample medium. Candidate genes were selected by the following criteria. First, genes with 1.5-fold differential expression between the wild type and eto1-4 were selected as the master gene pool, which was then used for comparison in treatments with AVG and individual exemplary compounds. Data were presented in hierarchical clustering and Venn diagram format. Agilent GeneSpring GX and Bioconductor software were used to analyze the expression profile data. Gene Ontology descriptions were generated by GeneSpring GX and further referred to the TAR GO database. Raw data are available in the GEO database (http://www.ncbi.nlm.nih.gov/geo) with Accession no. GSE20897.
The filtered and normalized expression data set from 22810 probes on the ATH1 Genechip was used for hierarchical clustering of gene expression profiles for comparison between AVG and the exemplary invention compounds in eto1-4. It was identified that 1,446 genes show at least 1.5-fold difference in expression between the WT and eto1-4 and used them as the master gene pool for clustering analysis (FIG. 7A). […] These genes likely contribute to the etiolated phenotype of eto1-4 by responding to elevated endogenous ethylene. To determine whether the exemplary compounds have specific r overlapping functions with AVG to suppress the eto1-4 phenotype, genes that are regulated by individual exemplary invention compounds and AVG for Venn diagram analysis were clustered (FIG. 7B). More than 63% of genes (356/561 for compound 9393; 389/561 for compound 9370; 399/561 for compound 7303; FIG. 7B) with expression associated with AVG were co-regulated by the exemplary invention compounds, which indicates an overlap function in suppression of the ethylene phenotype in eto1-4. […] Next genes co-regulated by all of the exemplary invention compounds and AVG were examined by performing a clustering analysis using the co-regulated genes identified in FIG. 7B: 356 (compound 9393 vs AVG), 389 (compound 9370 vs AVG) and 399 genes (compound 7303 vs AVG). It was uncovered that 276 genes were co-regulated by all of the exemplary invention compounds and AVG (FIG. 7C and Table 2). On the basis of GO descriptions generated by Gene Spring GX and TAIR database, the 276 genes were divided into subgroups related to their biological functions (Table 2). […] In addition, stress- and pathogenesis-related genes were among the co-regulated genes, possibly because ethylene is involved in both biotic and abiotic stresses.
Genes (1446 non-redundant loci) were selected by 1.5-fold differential expression between eto1-4 and WT as the master pool for analysis. These genes were used for comparison between chemical treatments by AVG and the exemplary invention compounds. The finalized 276 genes that are co-regulated by AVG and all of the exemplary invention compounds are shown. Locus ID also present in Nemhauser et al. (Nemhauser, et al. (2006) Cell 126, 467-475).

Cc1ccc(C2CC(=O)c3cnc(NC4CCCC4)nc3C2)cc1 (centres unmarked) [Compound 9370]
Signal Fold Change AT3G14850, unknown biological function: 0.20 | Signal Fold Change AT3G15890 protein kinase: 1.86 | Signal Fold Change AT3G16450 jacalin lectin protein: 2.54 | Signal Fold Change AT3G16470 jacalin lectin protein: 5.60 | Signal Fold Change AT3G16690, unknown biological function: 3.80 | Signal Fold Change AT3G17680, unknown biological function: 0.24 | Signal Fold Change AT3G20130 cytochrome P450: 1.73 | Signal Fold Change AT3G21770 peroxidase 30: 2.01 | Signal Fold Change AT3G22620 lipid transfer protein: 2.14 | Signal Fold Change AT3G23150 ethylene receptor, putative (ETR2): 0.16 | Signal Fold Change AT3G23800, unknown biological function: 0.40 | Signal Fold Change AT3G24670, unknown biological function: 0.32 | Signal Fold Change AT3G25710 bHLH protein: 2.47 | Signal Fold Change AT3G25730 AP2-containing transcription factor: 0.30 | Signal Fold Change AT3G25980 mitotic spindle checkpoint protein: 2.23 | Signal Fold Change AT3G27580 protein kinase: 0.56 | Signal Fold Change AT3G28290, unknown biological function: 0.18 | Signal Fold Change AT3G29250 short-chain dehydrogenase: 5.52 | Signal Fold Change AT3G30775 proline oxidase, mitochondrial: 3.13 | Signal Fold Change AT3G43270 pectinesterase protein: 0.20 | Signal Fold Change AT3G44820, response to light stimulus, phototropic-responsive NPH3 protein: 2.56 | Signal Fold Change AT3G44990 endo-xyloglucan transferase: 0.22 | Signal Fold Change AT3G45710 proton-dependent oligopeptide transport (POT) protein: 2.40 | Signal Fold Change AT3G46130 myb transcription factor (MYB48): 2.15 | Signal Fold Change AT3G46700 UDP-glucosyl transferase: 5.15 | Signal Fold Change AT3G47210, unknown biological function: 2.73 | Signal Fold Change AT3G47250, unknown biological function: 4.89 | Signal Fold Change AT3G49780 phytosulfokines 3 (PSK3): 7.46 | Signal Fold Change AT3G50660 steroid 22-alpha-hydroxylase: 4.00 | Signal Fold Change AT3G51410, unknown biological function: 0.32 | Signal Fold Change AT3G51970, unknown biological function: 2.88 | Signal Fold Change AT3G52180 protein tyrosine phosphatase: 0.25 | Signal Fold Change AT3G52920 expressed protein (defense response): 2.82 | Signal Fold Change AT3G53540, unknown biological function: 0.35 | Signal Fold Change AT3G56480, unknown biological function: 2.39 | Signal Fold Change AT3G58710 WRKY transcription factor: 2.65 | Signal Fold Change AT3G59370, unknown biological function: 2.99 | Signal Fold Change AT3G59710 short-chain dehydrogenase: 0.38 | Signal Fold Change AT3G59900, unknown biological function: 0.39 | Signal Fold Change AT3G60520, unknown biological function: 0.28 | Signal Fold Change AT3G61160 shaggy-related protein kinase beta/ASK-beta (ASK2): 3.86 | Signal Fold Change AT4G00730 anthocyaninless2: 0.54 | Signal Fold Change AT4G01410, unknown biological function: 0.27 | Signal Fold Change AT4G03140 short-chain dehydrogenase: 0.38 | Signal Fold Change AT4G08300, unknown biological function: 3.20 | Signal Fold Change AT4G09570 calcium-dependent protein kinase: 0.35 | Signal Fold Change AT4G10910, unknown biological function: 4.65 | Signal Fold Change AT4G11190 disease resistance-responsive protein: 9.98 | Signal Fold Change AT4G11280 ACC synthase 6: 2.29 | Signal Fold Change AT4G11310 cysteine proteinase: 9.04 | Signal Fold Change AT4G12080, unknown biological function: 2.05 | Signal Fold Change AT4G12410 auxin-responsive protein: 2.89 | Signal Fold Change AT4G12480 lipid transfer protein: 0.17 | Signal Fold Change AT4G13210, unknown biological function: 0.25 | Signal Fold Change AT4G15550 UDP-glucose:indole-3-acetate beta-D-glucosyltransferase: 0.28 | Signal Fold Change AT4G15920, unknown biological function: 17.08 | Signal Fold Change AT4G17220 expressed protein (cytoskeleton organization and biogenesis): 2.35 | Signal Fold Change AT4G18340 glycosyl hydrolase: 2.70 | Signal Fold Change AT4G23410 senescence-associated protein: 2.34 | Signal Fold Change AT4G25780, unknown biological function: 11.52 | Signal Fold Change AT4G26010 peroxidase: 0.38 | Signal Fold Change AT4G28085, unknown biological function: 4.84 | Signal Fold Change AT4G31000, unknown biological function: 0.61 | Signal Fold Change AT4G32920, unknown biological function: 2.35 | Signal Fold Change AT4G34560, unknown biological function: 1.85 | Signal Fold Change AT4G34760 auxin-responsive protein: 0.15 | Signal Fold Change AT4G35060 copper chaperone: 3.80 | Signal Fold Change AT4G35150, unknown biological function: 0.28 | Signal Fold Change AT4G36520, unknown biological function: 2.70 | Signal Fold Change AT4G37220 stress-responsive protein: 6.12 | Signal Fold Change AT4G38690, signal transduction, 1-phosphatidylinositol: 3.04 | Signal Fold Change AT4G39210 ADP-glucose pyrophosphorylase: 0.28 | Signal Fold Change AT4G39800 inositol-3-phosphate synthase isozyme 1: 2.08 | Signal Fold Change AT4G39840, unknown biological function: 0.29 | Signal Fold Change AT5G01210, unknown biological function: 0.31 | Signal Fold Change AT5G01300, unknown biological function: 1.40 | Signal Fold Change AT5G02260, cell wall organization and biogenesis, expansin (EXP9): 0.10 | Signal Fold Change AT5G02540 short-chain dehydrogenase: 0.12 | Signal Fold Change AT5G03160 DNAJ heat shock N-terminal domain-containing protein: 2.78 | Signal Fold Change AT5G04080, unknown biological function: 2.55 | Signal Fold Change AT5G05180, unknown biological function: 1.95 | Signal Fold Change AT5G06200, unknown biological function: 2.10 | Signal Fold Change AT5G08240, unknown biological function: 2.31 | Signal Fold Change AT5G08260 serine carboxypeptidase S10 protein: 0.38 | Signal Fold Change AT5G08370 alpha-galactosidase: 4.06 | Signal Fold Change AT5G09980 expressed protein (defense response): 0.38 | Signal Fold Change AT5G10720 sensory transduction histidine kinase: 0.32 | Signal Fold Change AT5G11540, unknown biological function: 5.68 | Signal Fold Change AT5G12170, response to cadmium ion, expressed protein: 0.34 | Signal Fold Change AT5G13870 endo-xyloglucan transferase: 0.11 | Signal Fold Change AT5G13910 AP2/EREBP-like transcription factor: 0.39 | Signal Fold Change AT5G14780 formate dehydrogenase: 0.35 | Signal Fold Change AT5G14920 gibberellin-regulated protein: 0.31 | Signal Fold Change AT5G15290, unknown biological function: 2.42 | Signal Fold Change AT5G15530 biotin carboxyl carrier protein 2: 0.38 | Signal Fold Change AT5G15830 bZIP transcription factor protein: 4.18 | Signal Fold Change AT5G18470, unknown biological function: 0.18 | Signal Fold Change AT5G18670 beta-amylase: 0.40 | Signal Fold Change AT5G18860, unknown biological function: 2.08 | Signal Fold Change AT5G18970, unknown biological function: 3.58 | Signal Fold Change AT5G19890 peroxidase: 0.08 | Signal Fold Change AT5G19930, unknown biological function: 1.64 | Signal Fold Change AT5G20410 monogalactosyldiacylglycerol synthase: 3.75 | Signal Fold Change AT5G22310, unknown biological function: 0.31 | Signal Fold Change AT5G22860 serine carboxypeptidase S28 protein: 3.54 | Signal Fold Change AT5G23750, unknown biological function: 4.16 | Signal Fold Change AT5G24870, unknown biological function: 2.17 | Signal Fold Change AT5G25140 cytochrome P450: 5.04 | Signal Fold Change AT5G25160 zinc finger (C2H2 type) protein: 3.03 | Signal Fold Change AT5G25190 ethylene-responsive element-binding protein: 0.40 | Signal Fold Change AT5G34940, unknown biological function: 0.46 | Signal Fold Change AT5G37300, unknown biological function: 3.03 | Signal Fold Change AT5G38930, unknown biological function: 0.24 | Signal Fold Change AT5G39860 bHLH protein: 3.46 | Signal Fold Change AT5G41900 hydrolase: 3.08 | Signal Fold Change AT5G44410, unknown biological function: 3.27 | Signal Fold Change AT5G44580, unknown biological function: 0.21 | Signal Fold Change AT5G46890 lipid transfer protein: 3.94 | Signal Fold Change AT5G47240, unknown biological function: 4.32 | Signal Fold Change AT5G47330 palmitoyl protein thioesterase protein: 3.02 | Signal Fold Change AT5G47450 major intrinsic protein: 2.71 | Signal Fold Change AT5G47950, unknown biological function: 2.55 | Signal Fold Change AT5G48490 lipid transfer protein: 12.97 | Signal Fold Change AT5G48900, unknown biological function: 0.48 | Signal Fold Change AT5G49900, unknown biological function: 2.96 | Signal Fold Change AT5G50720 ABA-responsive protein (HVA22e): 2.65 | Signal Fold Change AT5G52120 SKP1 interacting partner 3 protein: 7.26 | Signal Fold Change AT5G53190, unknown biological function: 6.92 | Signal Fold Change AT5G53830, unknown biological function: 0.39 | Signal Fold Change AT5G56320, cell wall organization and biogenesis, expansin (EXP14): 2.90 | Signal Fold Change AT5G58660, unknown biological function: 0.27 | Signal Fold Change AT5G59540 oxidoreductase: 0.40 | Signal Fold Change AT5G63450 cytochrome P450: 8.71 | Signal Fold Change AT5G63650 serine/threonine protein kinase: 0.33 | Signal Fold Change AT5G65970 seven transmembrane MLO protein: 2.88 | Signal Fold Change AT5G66310, microtubule-based movement, kinesin motor protein: 0.45 | Signal Fold Change AT5G66400 dehydrin (RAB18): 0.81 | Signal Fold Change AT5G66440, unknown biological function: 0.31 | Signal Fold Change AT5G66460 (1-4)-beta-mannan endohydrolase: 0.42 | Signal Fold Change AT5G66780, unknown biological function: 0.86
